In turn, `CC(C)c1noc(C2CCN(c3ccc4oc(-c5ccc(S(C)(=O)=O)cc5F)nc4c3)CC2)n1` yielded a melting point of 206 to 209 °C. As to `COc1ccc2c(c1)c(CC(=O)Oc1ccc(CN3CCN(CC(C)(C)SN=O)CC3)cc1)c(C)n2C(=O)c1ccc(Cl)cc1`, the melting point is 90 to 92 °C. `CCOC(=O)C(=O)c1c[nH]c2cc(OC)ccc12`: the melting point was in the range of 207 to 208 °C. The compound `BrCc1ccc(CBr)c(Br)c1` came in with a melting point of 90 to 91 °C. Then `Cc1c(SCc2ccco2)ccnc1CO`, with 60 to 62 °C.

The compound `COc1ccc2cc(-c3cn([C@H]4CN5CCC4CC5)nn3)ccc2c1` showed a melting point of 186 °C. Then `CCOc1cc2cc(CO)nc(-c3ccnc(-n4nc(-c5cc(OC)c(OC)c(OC)c5)c5sccc5c4=O)c3)c2cc1OCC`, with 250 to 251 °C. Take `COc1cccc([C@@H](c2ccc(C3CN(CCC(=O)O)C3)cc2)N2C[C@@H](C)N(Cc3ccccc3)C[C@@H]2C)c1`: the melting point was 93 to 96 °C.

`CSc1nc(NS(=O)(=O)c2ccc(C(C)(C)C)cc2)c(-c2ccc(C)cc2)c(OCCOCc2ccccc2)n1` gave a melting point of 115 to 116 °C. In the case of `O=[N+]([O-])c1ccc2c(c1)OC(CO)O2` (stereo not drawn) it was 80 to 82 °C; in that of `CCCCc1nc(C(F)(F)F)c(CO)n1Cc1ccc(-c2ccccc2C(=O)O)cc1`, 198 to 200 °C; in that of `CCN(CC)C(C)CN(c1c(C)cccc1C)S(C)(=O)=O` (stereo not drawn), 58 to 60 °C. The compound `Cn1cc(-c2ccccc2S(N)(=O)=O)cn1` came in with a melting point of 183 to 186 °C. Regarding `CC(=O)OCc1ccc2cc(C(=O)O)ccc2c1`, the melting point was 180 to 190 °C. Then `CC(=O)c1ccc(C)c(N=C2NCCN2)c1`, with 160 to 162 °C; and `Cc1cc2cn[nH]c(=O)c2n1CC(C)C`, with 188 to 191 °C; and `C[Si](C)(C)c1ccc2cc(C(=O)O)n(Cc3cccc(F)c3)c2c1`, with 189 to 191 °C.

Consider `Cc1cc2c(NCc3ccc4c(c3)OCO4)nc(-n3ccnc3)nc2s1`, for which the melting point was found to be 162 °C.

`COC(=O)CCc1ccc(-n2cn[nH]c2=O)cc1` gave a melting point of 174 to 176 °C. Take `CNC(=O)Nc1ccc(S(N)(=O)=O)cc1`: the melting point was in the range of 211 to 213 °C. Regarding `CCCCCCCC(=O)NCCCCCCO`, the melting point lay in the range of 77 to 78 °C. Then `COc1cccc2nc(-c3ccc4c(c3)NC(=O)C4(C)C)[nH]c12`, with 222 to 225 °C; and `O=S1(=O)CCc2nn(-c3ccc(Cl)cc3F)c(Cl)c2C1`, with 141 to 143 °C; and `CC(C)n1nc(-c2c(-c3ccccc3)nc(Cl)c(N)c2Cl)ccc1=O`, with 186 to 188 °C. Take `O=C(Nc1cc(C2OCCCO2)ccc1O)c1ccccc1OCCCCc1ccccc1`: the melting point was in the range of 122 to 123 °C. The compound `COc1cccc(CN2CC=C(/C=C/c3ccccc3)CC2)c1` displayed a melting point of 75 to 77 °C. On to `O=C(Nc1cc2ncc(CN3CCCC3)cc2cc1F)c1ccc(-c2ccccc2)cc1F`, for which the melting point is 163 to 164 °C. As for `CCN(CC)CCc1nc(Cn2cnc3c2c(=O)n(C)c(=O)n3C)no1`, the melting point was in the range of 69 to 70 °C. Then `COc1ccc(Nc2c([N+](=O)[O-])ccc(Cl)c2C(=O)O)cc1Cl`, with 222 to 228 °C; and `COc1cc(C(N)=O)ccc1-c1nc2cc3c(cc2[nH]1)NC(=O)C3(C)C`, with 265 to 270 °C; and `CC(C)(C(=O)c1ccc(Cl)cc1)n1cncn1`, with 111 °C. The compound `O=C(N[C@@H](CSC(=O)c1ccccc1)C(=O)N[C@@H](Cc1c[nH]c2ccccc12)C(=O)O)c1ccccc1` gave a melting point of 175 to 178 °C. Then `OC1(c2cccc(C(F)(F)F)c2)CCN(CCCC2(c3ccc(F)cc3F)OCCO2)CC1`, with 90 to 93 °C; and `CSc1cc2nnc(C)n2c(C)n1`, with 201 to 203 °C; and `C=CC(c1ccccc1)c1c(C)c(NC=O)c(C)c(C)c1O` (stereo not drawn), with 144 to 145 °C.

`COCCCOc1cc(C[C@@H](C(=O)O)C(C)C)ccc1OC`: the melting point is 43.5 to 44 °C. In the case of `CC(=O)Oc1ccc(C=O)cc1Cl` it was 33 to 35 °C; in that of `CCCCCCc1ccc(CCCCC(NC(C)=O)(C(=O)OCC)C(=O)OCC)cc1`, 57 to 58 °C. Then `Cc1cc(C#N)cc(C(=O)c2c(C(C)C)c(=O)[nH]c(=O)n2CC(C)C)c1`, with 200 to 201 °C; and `Cc1nc[nH]c1CSCCN=C(NC#N)NCCSCc1[nH]cnc1C`, with 92 to 95 °C; and `Nc1c(F)c(N2CCC(CC3(N)CC3)C2)c(F)c2c1c(=O)c(C(=O)O)cn2C1CC1F` (stereo not drawn), with 185 to 193 °C. The compound `Nc1nc(NCCNCC(O)COc2ccccc2)c2[nH]cnc2n1` (stereo not drawn) displayed a melting point of 169 to 171 °C.

In turn, `CCN(CC)CCCOc1ccc(NC(=O)c2ccccc2)cc1NC(=O)c1ccccc1` registered a melting point of 139 to 140 °C. Turning to `COc1ccc2c(N=O)c(O)ccc2c1`, the melting point lay in the range of 147 to 148 °C. In the case of `Cc1c(-c2ccnc3cc(Cl)ccc23)c2cc(NS(C)(=O)=O)ccc2n1CC(=O)O` it was 195 to 198 °C. Then `CCCCCOc1nc(N)c2ncn(C3CCCCC3)c2n1`, with 64 to 68 °C; and `OCCC(c1ccccc1)c1cc(Br)ccc1OCc1ccccc1` (stereo not drawn), with 70 °C; and `COc1cc(Nc2c(C#N)cnc3sc(I)cc23)c(Cl)cc1Cl`, with 231 to 233 °C. The compound `COc1ccccc1-c1cc(N)c(S(N)(=O)=O)cc1C` had a melting point of 172 to 175 °C. In the case of `CCc1cnc2c(C#N)cnn2c1-c1cccc(C(F)(F)F)c1` it was 135 to 137 °C; in that of `CN(C)c1cc2nc(C(C)(C)C)sc2cc1NC(N)=S`, 275 to 280 °C. Take `CCNC(=O)N(Cc1ccc(Cl)cc1)C1CC2CCC1C2` (stereo not drawn): the melting point fell in the range of 132 to 133 °C.

The compound `CCn1cc(C(=O)O)c(=O)c2cc(F)c(N)nc21` displayed a melting point of 299 to 303 °C. `COc1ccc(CN(C(=O)Nc2ccc(C(=O)O)cc2)c2ccc3c(c2)C(C)(C)CCC3(C)C)cc1` came in with a melting point of 117 to 121 °C.

As to `O=C(Nc1c(C(O)(C(F)(F)F)C(F)(F)F)ccc2ccccc12)c1ccc(F)cc1`, the melting point lay in the range of 135 to 136 °C.

The compound `Nc1c(C(=O)c2ccc(Cl)cc2)oc2ccccc12` showed a melting point of 202 to 204 °C. Compound `Nc1nc2ccccc2c2c1nc(C1CCCC1)n2CCOc1ccccc1` gave a melting point of 216 to 218 °C. In the case of `CN(c1nc(-c2cc3ccccc3[nH]c2=O)cs1)S(=O)(=O)c1ccc(Br)cc1` it was 280 to 282 °C; in that of `COCCCNC(=O)OCCCc1ccc(OCCOC)cc1Oc1ncc(C(F)(F)F)cc1Cl`, 83.5 to 85 °C. Then `CCOc1ccccc1OCC(O)CNC(C)=CC(=O)c1ccc(C)nc1` (single isomer, unassigned; (-)), with 108 to 109 °C. On to `COc1ccc(S(=O)(=O)Nc2ccc(Cl)cc2/C=C/c2ccncc2)cc1`, for which the melting point was 175 to 176 °C. `Cc1nc2cc(C(c3cccc(Cl)c3)n3ccnc3)ccc2[nH]c1=O` (stereo not drawn) displayed a melting point of 271 °C. Take `CN(CC(O)c1cccc(O)c1)C(=O)c1cnc(N(C)C)nc1-c1ccccc1` (stereo not drawn): the melting point lay in the range of 79 to 81 °C. In the case of `COc1ccc(C(=O)OCCOC(=O)NC2(C(=O)O)CC2)cc1OC` it was 172 to 174 °C; in that of `COCc1ccc2c(c1S(=O)(=O)NC(=O)Nc1nc(C)cc(OC)n1)S(=O)(=O)C(C)C2` (stereo not drawn), 215 to 216 °C; in that of `O=C(c1ccccc1)c1cc(Oc2cc(Cl)cc(Cl)c2)c2c(=O)c3ccccc3sc2c1`, 160 to 163 °C.

Turning to `Cc1cc(C#N)cc(C(=O)Nc2ccc(C#N)cn2)n1`, the melting point came to 279 °C. In the case of `COC(=O)C(Oc1ccc(-c2ccc(Cl)cc2)cc1)C(F)(F)F` (stereo not drawn), the melting point lay within 104 to 105 °C.

The compound `COc1c([N+](=O)[O-])ccc(C=O)c1OS(=O)(=O)c1ccccc1` displayed a melting point of 74 to 76 °C. In the case of `Cc1ccc(S(=O)(=O)On2nnc3ccc(Cl)cc32)cc1` it was 94 to 96 °C; in that of `Nc1ccc(C(=O)N2CCC=Cc3sccc32)c(Cl)c1`, 192 to 200 °C; in that of `CCN(CCCc1ccccc1)[C@H]1CC[C@H](c2ccc(O)cc2)CC1`, 163 to 166 °C.

Consider `O=C(OCCN1C(=O)C=C(c2ccccc2)C1=O)c1cc([N+](=O)[O-])cc([N+](=O)[O-])c1`, for which the melting point fell in the range of 179 to 181 °C.

The compound `CC1(C)c2ccccc2N2Cc3cc([N+](=O)[O-])ccc3OC21C` (stereo not drawn) displayed a melting point of 180 °C. In the case of `CCOC(=O)C(NC(=O)CCl)N(C(=O)CCl)c1cscn1` (stereo not drawn) it was 102 to 104 °C; in that of `O=C(NC(=O)c1ccccc1Cl)Nc1cc(C(F)(F)F)c(F)cc1Br`, 192 °C; in that of `C[Si](C)(CCSCCNC(=O)n1cc(F)c(=O)[nH]c1=O)c1ccccc1`, 90 to 91 °C. In the case of `O=C1OC(=O)c2cc(C#Cc3cccc4ccccc34)ccc21`, the melting point was in the range of 220 to 222 °C.

`CCOC(=O)c1cc(C)n(-c2cccc(C(=O)O)c2)c1-c1ccccc1` showed a melting point of 161 to 163 °C. In the case of `CC(=O)N(C1(c2ccc(OCc3ccc4ccccc4n3)cc2)CCCC1)S(=O)(=O)c1ccccc1C` it was 80 °C; in that of `NC(=O)CCc1ccncc1`, 164 to 166 °C; in that of `BrCCCCCCCCn1nnc(-c2ccccc2)c1-c1ccccc1`, 90 to 91 °C. Then `CCCCCCCCCc1ccc(C(=O)CC(=O)C(=O)O)cc1`, with 90 to 91 °C. For the compound `N=C(N)c1ccc(CC23CCCN2C(=O)N(c2cc(Cl)cc(Cl)c2)C3=O)cc1` (stereo not drawn), the melting point was found to be 188 °C. As for `Cc1cc(COc2ccccc2)c2c(N)c(C(N)=O)sc2n1`, the melting point is 194 to 196 °C. On to `CN(C)C1(Cc2ccccc2)CCC(c2[nH]c3ccccc3c2Cc2ccccc2)CC1` (stereo not drawn), for which the melting point fell in the range of 140 to 143 °C.

`Cc1noc(C(=O)N2CCCCC2)c1C(=O)O` came in with a melting point of 128 to 130 °C. Then `COC1c2c(ccc3cnn(CC(C)N)c23)OCC1O` (stereo not drawn), with 105 to 108 °C.

For orientation: melting point means the temperature, or range, at which the solid turns liquid.

The values above are taken from a melting point compilation (Tetko et al.; mined from patent text by program, amines drawn as free bases though some values may be those of a salt).
